This note sets out measurements from ChEMBL document CHEMBL1201862, “PubChem BioAssay data set” (2004).

Active and inactive are the calls of the source.

Experiment [1] deals with T1, Histone-lysine N-methyltransferase NSD2 (Homo sapiens, UniProt O96028).
T1 sequence (O96028 whole entry): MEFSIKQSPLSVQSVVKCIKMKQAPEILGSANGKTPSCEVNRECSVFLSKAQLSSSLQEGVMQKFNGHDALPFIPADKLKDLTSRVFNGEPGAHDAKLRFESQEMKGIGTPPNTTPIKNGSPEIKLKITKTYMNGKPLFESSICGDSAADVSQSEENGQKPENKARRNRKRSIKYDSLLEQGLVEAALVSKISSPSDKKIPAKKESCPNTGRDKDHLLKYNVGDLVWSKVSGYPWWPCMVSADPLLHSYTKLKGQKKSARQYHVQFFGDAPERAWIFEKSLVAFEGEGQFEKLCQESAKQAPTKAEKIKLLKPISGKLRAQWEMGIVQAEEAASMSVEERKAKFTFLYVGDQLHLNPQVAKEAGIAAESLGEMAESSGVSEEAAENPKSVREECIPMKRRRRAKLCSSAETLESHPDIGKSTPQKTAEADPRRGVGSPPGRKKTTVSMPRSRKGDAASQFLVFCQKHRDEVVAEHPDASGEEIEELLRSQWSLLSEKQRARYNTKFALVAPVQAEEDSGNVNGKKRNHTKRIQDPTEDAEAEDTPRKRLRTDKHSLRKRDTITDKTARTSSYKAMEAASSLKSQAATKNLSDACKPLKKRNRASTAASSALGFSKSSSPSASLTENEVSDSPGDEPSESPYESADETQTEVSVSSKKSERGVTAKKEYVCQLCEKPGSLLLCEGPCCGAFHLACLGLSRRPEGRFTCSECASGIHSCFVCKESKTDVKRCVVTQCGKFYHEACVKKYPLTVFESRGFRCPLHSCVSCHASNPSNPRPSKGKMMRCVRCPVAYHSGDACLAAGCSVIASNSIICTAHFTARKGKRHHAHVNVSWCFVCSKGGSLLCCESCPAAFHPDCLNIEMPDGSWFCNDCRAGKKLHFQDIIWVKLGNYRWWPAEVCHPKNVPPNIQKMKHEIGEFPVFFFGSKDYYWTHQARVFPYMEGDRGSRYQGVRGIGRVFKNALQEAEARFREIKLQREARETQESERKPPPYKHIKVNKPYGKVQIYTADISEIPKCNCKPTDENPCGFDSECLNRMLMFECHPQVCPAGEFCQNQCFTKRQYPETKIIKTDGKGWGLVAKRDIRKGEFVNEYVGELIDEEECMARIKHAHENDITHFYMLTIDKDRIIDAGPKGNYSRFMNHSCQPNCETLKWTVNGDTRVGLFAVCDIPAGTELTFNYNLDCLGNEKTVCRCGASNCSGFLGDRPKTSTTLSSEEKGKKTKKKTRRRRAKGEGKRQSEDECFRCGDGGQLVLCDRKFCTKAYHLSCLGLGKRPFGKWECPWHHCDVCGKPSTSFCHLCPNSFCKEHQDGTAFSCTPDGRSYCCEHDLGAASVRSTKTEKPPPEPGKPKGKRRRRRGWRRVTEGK
The class given is biochemical.

Experiment [2] deals with T2, Serine/threonine-protein kinase TBK1 (Homo sapiens, UniProt Q9UHD2).
T2 sequence (Q9UHD2 whole entry): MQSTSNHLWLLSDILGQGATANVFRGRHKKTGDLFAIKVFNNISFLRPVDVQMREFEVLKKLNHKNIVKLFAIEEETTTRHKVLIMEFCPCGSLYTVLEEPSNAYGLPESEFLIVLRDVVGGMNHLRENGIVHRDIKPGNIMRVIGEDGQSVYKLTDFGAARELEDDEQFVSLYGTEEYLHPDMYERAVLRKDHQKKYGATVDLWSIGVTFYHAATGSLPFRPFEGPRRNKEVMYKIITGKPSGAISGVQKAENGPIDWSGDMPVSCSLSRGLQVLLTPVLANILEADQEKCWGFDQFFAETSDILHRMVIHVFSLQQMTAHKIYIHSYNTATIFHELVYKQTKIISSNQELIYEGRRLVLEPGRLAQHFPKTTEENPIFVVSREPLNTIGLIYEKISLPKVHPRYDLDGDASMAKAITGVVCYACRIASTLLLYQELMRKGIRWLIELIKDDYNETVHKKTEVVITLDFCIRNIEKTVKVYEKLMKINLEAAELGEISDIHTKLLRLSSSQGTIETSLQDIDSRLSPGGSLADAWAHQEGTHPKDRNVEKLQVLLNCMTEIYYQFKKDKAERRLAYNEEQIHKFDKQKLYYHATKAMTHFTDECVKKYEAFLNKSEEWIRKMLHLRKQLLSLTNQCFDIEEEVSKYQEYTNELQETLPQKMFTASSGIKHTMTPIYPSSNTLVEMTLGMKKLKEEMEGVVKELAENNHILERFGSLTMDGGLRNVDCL
In words: Navigating the Kinome. Panel member name: TBK1. The class given is functional.

Experiment [3] addresses Ribosomal protein S6 kinase alpha-3 (Homo sapiens, UniProt P51812). The class given is functional.
In experiment [4] the target is Proto-oncogene tyrosine-protein kinase receptor Ret (Homo sapiens, UniProt P07949). Type of experiment: functional.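 Note: measured within a kinome-wide profiling panel, RET as the panel member.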
Proto-oncogene tyrosine-protein kinase receptor Ret, sequence (P07949 whole entry): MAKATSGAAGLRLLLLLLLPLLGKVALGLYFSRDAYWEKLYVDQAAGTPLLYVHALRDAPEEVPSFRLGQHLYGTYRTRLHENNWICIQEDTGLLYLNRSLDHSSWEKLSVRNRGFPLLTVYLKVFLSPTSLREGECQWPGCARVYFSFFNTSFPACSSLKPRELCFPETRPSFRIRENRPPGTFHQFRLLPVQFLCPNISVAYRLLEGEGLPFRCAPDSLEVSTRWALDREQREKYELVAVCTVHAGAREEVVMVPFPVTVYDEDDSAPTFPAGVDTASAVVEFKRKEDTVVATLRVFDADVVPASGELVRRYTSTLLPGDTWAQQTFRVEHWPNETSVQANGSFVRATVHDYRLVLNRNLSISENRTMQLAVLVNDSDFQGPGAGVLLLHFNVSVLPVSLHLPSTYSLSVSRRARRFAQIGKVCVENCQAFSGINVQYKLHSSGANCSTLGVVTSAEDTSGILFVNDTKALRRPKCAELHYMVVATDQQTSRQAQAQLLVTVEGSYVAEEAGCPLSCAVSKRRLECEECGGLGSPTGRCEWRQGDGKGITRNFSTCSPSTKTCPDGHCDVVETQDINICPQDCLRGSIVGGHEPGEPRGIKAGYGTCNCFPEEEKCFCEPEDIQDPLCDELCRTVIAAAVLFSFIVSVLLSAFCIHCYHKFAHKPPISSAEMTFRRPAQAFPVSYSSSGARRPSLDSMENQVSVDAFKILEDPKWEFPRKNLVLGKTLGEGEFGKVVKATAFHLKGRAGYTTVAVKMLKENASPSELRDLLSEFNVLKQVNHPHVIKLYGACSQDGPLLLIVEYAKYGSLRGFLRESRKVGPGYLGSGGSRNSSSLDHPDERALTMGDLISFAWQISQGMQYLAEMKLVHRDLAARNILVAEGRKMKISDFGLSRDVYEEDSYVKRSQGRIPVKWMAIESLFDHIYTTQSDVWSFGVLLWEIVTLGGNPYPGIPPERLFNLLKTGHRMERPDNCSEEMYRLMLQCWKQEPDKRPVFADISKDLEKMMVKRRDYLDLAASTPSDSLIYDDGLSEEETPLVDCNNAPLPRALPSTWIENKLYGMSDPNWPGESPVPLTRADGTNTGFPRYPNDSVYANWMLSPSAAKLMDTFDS
Experiment [5] addresses Tyrosine-protein kinase Lck (Homo sapiens, UniProt P06239). The class given is functional.
Experiment [6] has as its target G protein-coupled receptor kinase 5 (Homo sapiens, UniProt P34947). The experiment in a line: Navigating the Kinome. Panel member name: GPRK5. Type of experiment: functional.
The target of experiment [7] is Platelet-derived growth factor receptor beta (Homo sapiens, UniProt P09619). The class given is functional.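 Note: value comes from a kinome panel, with PDGFRB tested as one panel member.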
Platelet-derived growth factor receptor beta, sequence (P09619 whole entry): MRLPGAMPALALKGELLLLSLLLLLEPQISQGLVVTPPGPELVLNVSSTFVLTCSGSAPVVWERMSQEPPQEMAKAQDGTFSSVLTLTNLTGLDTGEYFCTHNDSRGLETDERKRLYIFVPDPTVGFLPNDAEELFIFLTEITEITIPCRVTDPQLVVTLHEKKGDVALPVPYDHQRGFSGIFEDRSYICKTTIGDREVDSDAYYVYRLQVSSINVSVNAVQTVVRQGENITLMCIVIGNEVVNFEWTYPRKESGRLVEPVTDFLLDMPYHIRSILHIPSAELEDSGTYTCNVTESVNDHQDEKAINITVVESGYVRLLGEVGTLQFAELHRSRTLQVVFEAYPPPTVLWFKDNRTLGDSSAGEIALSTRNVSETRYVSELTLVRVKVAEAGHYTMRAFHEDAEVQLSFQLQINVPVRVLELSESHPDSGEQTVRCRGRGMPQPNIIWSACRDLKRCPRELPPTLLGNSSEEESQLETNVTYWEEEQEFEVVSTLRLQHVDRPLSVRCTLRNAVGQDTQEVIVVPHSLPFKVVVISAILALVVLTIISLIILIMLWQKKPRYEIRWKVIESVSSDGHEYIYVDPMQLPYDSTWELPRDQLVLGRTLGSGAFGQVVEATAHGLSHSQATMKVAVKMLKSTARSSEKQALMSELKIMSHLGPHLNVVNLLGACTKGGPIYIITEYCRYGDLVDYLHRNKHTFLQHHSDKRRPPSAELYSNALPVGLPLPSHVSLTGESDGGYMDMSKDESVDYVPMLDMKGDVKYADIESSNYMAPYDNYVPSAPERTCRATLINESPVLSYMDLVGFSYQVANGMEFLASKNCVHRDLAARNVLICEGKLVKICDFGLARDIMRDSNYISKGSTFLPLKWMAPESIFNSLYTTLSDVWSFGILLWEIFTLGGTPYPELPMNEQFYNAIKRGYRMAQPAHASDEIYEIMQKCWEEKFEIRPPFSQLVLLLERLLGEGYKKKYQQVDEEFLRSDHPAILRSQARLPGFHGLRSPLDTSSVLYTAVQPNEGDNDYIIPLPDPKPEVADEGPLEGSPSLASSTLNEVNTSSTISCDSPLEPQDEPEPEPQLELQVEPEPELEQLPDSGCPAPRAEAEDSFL
Experiment [8] has as its target Rho-associated protein kinase 2 (Homo sapiens, UniProt O75116). Type of experiment: functional.
Another experiment addresses Genome polyprotein (dengue virus type 2, UniProt P29990). In words: flavivirus cap methylation enzyme inhibition – biochemical, confirmation dose response, primary screen (AID 588689). The class given is functional.
In experiment [9] the target is Mitochondrial peptide methionine sulfoxide reductase (Bos taurus, UniProt P54149). Type of experiment: functional.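 Note: absorbance read-out, biochemical high-throughput dose-response screen for MsrA inhibitors, confirmatory; recombinant bovine MsrA coupled to E. coli TrxB with NADPH and selenocystamine; potency is for inhibitors of MsrA activity on DMSO substrate.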
Mitochondrial peptide methionine sulfoxide reductase, sequence (P54149 whole entry): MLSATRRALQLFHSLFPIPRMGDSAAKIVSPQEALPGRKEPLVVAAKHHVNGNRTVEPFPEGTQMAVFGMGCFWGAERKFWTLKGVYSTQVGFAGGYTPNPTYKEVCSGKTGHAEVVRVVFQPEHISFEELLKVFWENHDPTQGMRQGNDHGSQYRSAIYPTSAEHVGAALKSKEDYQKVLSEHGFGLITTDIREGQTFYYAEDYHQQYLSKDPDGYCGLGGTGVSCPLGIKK
In experiment [10] the target is Heat shock protein HSP 90-alpha (Homo sapiens, UniProt P07900). In words: Luminescence-based dose response biochemical high throughput screening assay for inhibitors of the Heat Shock Protein 90 (HSP90). [Related pubchem assays: 1831 (Summary AID.), 1846 (Confirmation screen.), 1789 (Primary screen.)].
The test system of a further experiment is Vero. In words: viability of Vero cells under compound – cytotoxicity control for flavivirus capping enzyme inhibitors (AID 588742). The class given is functional. Particulars: Chlorocebus sabaeus.
Another experiment relates to INS1. The experiment in a line: INS-1E survival protection against cytokine death – cell-based, luminescence, retest, dose response (AID 449756).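 Note: cell death triggered by IL-1 beta plus TNF-alpha plus IFN-gamma mixture; protective hits raise ATP signal compared with cytokine alone wells.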 Type of experiment: functional. Particulars: Rattus norvegicus.
A further experiment has as its target Nonstructural protein 1 (Influenza A virus, UniProt Q194T2). Type of experiment: functional, Influenza A virus (A/California/07/2009(H1N1)).
The test system of the next experiment is BJ. The experiment in a line: cells. Type of experiment: functional, cell-based. Particulars: Homo sapiens.
Another experiment concerns P388/ADR. The experiment in a line: cells. Particulars: Mus musculus. Type of experiment: functional.

Tyrosine-protein kinase Lck, sequence (P06239 whole entry): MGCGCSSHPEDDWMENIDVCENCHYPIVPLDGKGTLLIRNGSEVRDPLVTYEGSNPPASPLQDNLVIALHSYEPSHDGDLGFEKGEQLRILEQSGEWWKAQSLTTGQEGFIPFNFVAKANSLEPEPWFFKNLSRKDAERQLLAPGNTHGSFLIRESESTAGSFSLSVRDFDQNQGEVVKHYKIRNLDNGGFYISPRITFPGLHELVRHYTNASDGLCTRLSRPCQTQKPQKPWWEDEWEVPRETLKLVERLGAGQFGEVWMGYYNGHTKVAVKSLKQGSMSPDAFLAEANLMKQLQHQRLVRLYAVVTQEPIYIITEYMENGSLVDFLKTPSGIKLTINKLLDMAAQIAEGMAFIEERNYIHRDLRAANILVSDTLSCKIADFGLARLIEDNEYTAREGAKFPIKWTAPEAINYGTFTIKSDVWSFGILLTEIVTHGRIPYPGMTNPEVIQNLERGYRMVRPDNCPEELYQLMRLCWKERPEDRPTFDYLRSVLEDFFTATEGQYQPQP
Nonstructural protein 1, sequence (Q194T2 whole entry): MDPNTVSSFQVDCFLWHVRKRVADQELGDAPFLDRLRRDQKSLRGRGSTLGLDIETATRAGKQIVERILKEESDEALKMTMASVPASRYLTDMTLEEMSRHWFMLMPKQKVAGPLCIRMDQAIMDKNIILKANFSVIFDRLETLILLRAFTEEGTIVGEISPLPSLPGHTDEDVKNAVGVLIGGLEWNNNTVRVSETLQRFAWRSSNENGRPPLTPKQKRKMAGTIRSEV
Ribosomal protein S6 kinase alpha-3, sequence (P51812 whole entry): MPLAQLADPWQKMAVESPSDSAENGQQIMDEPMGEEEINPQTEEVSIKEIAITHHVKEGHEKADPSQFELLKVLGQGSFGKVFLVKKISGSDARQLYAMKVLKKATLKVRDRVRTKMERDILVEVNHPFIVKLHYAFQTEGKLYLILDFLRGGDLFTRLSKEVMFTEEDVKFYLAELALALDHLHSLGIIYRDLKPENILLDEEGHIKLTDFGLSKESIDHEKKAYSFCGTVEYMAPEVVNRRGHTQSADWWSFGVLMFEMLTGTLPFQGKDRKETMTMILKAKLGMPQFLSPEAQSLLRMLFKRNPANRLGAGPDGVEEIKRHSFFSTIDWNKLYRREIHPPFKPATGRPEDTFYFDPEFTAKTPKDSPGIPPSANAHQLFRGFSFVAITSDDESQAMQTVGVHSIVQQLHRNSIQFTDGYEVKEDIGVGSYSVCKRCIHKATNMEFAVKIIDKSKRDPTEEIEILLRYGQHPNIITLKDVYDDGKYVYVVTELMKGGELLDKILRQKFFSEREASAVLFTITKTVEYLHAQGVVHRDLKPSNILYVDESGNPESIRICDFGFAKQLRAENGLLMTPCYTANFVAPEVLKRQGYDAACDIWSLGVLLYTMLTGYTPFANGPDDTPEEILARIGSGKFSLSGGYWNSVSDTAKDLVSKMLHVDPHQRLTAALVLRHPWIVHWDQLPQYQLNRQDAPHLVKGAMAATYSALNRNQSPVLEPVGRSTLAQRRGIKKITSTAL
G protein-coupled receptor kinase 5, sequence (P34947 whole entry): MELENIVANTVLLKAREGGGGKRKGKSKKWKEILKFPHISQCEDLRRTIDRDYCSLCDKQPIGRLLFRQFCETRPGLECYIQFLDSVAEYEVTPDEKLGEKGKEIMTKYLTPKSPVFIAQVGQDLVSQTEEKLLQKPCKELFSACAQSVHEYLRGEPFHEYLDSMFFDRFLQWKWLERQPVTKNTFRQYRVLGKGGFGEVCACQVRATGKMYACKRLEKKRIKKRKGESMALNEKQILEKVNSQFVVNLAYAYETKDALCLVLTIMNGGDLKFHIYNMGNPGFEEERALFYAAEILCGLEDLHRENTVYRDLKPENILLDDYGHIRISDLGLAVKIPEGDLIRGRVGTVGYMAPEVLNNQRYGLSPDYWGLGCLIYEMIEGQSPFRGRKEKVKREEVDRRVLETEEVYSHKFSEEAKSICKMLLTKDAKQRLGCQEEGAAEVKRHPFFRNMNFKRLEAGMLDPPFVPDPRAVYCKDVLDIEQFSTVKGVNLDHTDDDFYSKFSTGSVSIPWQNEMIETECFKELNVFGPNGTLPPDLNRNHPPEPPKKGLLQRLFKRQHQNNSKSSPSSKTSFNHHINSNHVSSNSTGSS

`O=C(Cc1ccccc1)NC1(O)C(=O)c2ccccc2C1=O`: the AC50 (in general, the midpoint of the concentration-response curve, whichever way the signal moves) in experiment [1] is 7.11 µM (active).

As to `O=c1[nH]c2cc(Br)cnc2[nH]1`, the figures for the Ki in experiment [2], in experiment [3] and in experiment [4] were 79.4 µM (active), 31.6 µM (active) and 31.6 µM (active), respectively.

For `O=C(Nc1cccc(C(F)(F)F)n1)Nc1ccnc2cc(OC(F)F)ccc12`, the Ki (as a rule, a dissociation constant, usually derived from enzyme kinetics or from competition with a known ligand) in [2] was > 3.16 µM (inactive); in experiment [3] it was > 3.98 µM (inactive); in experiment [4], > 3.16 µM (inactive); in [5] it was > 6.31 µM (inactive); in experiment [6], > 3.98 µM (inactive); in [7], > 2 µM (inactive).

On to `O=C(Nc1cccc(C(F)(F)F)n1)Nc1ccnc2cc(Cl)ccc12`, for which the Ki in [2] is > 3.16 µM (inactive); in [5], > 6.31 µM (inactive); in experiment [6] it was > 3.98 µM (inactive); in experiment [7], > 2 µM (inactive).

For the molecule `CCC1CC(NS(=O)(=O)C2CC2)CC1c1ncc2cnc3[nH]ccc3n12` (centres undefined), the Ki in experiment [2] is > 3.16 µM (inactive); in experiment [5] it was 3.98 µM (active); in experiment [8], 0.0126 µM (active).

Turning to `Cc1cc(C)c(S(=O)(=O)/N=C2\C=C(Nc3ccc(C(=O)O)cc3)C(=O)c3ccccc32)c(C)c1`, the IC50 (as a rule, the concentration at which inhibition is half-maximal) was 21.2 µM (active) on Genome polyprotein, 44.8 µM (inactive) in experiment [9], 1.68 µM (active) in experiment [10] and 20.8 µM (active) at Nonstructural protein 1. Further, the CC50 (commonly the concentration giving 50% cytotoxicity) in the experiment with Vero is 9.71 µM (active). Also, in the experiment with INS1, the concentration at half-maximal activity (AC50) is 2.51 µM (active).

Take `COC(=O)c1nc(-c2ccc3c(n2)C(=O)C(=N)C(OC)=C3O)c(N)c(-c2ccc(OC)c(OC)c2O)c1C`: in the experiment on BJ, the EC50 (as a rule, the concentration giving half of the maximal effect) was 4.56 µM (active). Also, the figures for the AC50 (in experiment [1]; in the experiment on INS1) were > 20 µM (inactive) and 1.56 µM (active), respectively. Moreover, the GI50 (in general, the concentration at which growth is held to half of that of the control) with P388/ADR is 1.4 µM (inactive). The CC50 with Vero was 0.18 µM (active). Moreover, the IC50 at Nonstructural protein 1 is > 100 µM (active).
